Measurements: patent publication US20140179766A1, “IDENTIFICATION OF THROMBOSIS OR BLEEDING RISK IN AN INDIVIDUAL WITH AND WITHOUT ANTI-PLATELET THERAPY” (ROYAL COLLEGE OF SURGEONS IN IRELAND, priority 2011, published 2014)

System: 11-dehydro-thromboxane B2 (TxM)
Assay: Urinary TxM (11-dehydro-thromboxane B2) by liquid chromatography/tandem mass spectrometry in participants of the HACVD sub-study of ASCOT
Format: in vivo, human
Conditions: SNP association with TxM seen only in patients not taking aspirin
Protocol: The genetic determinants of urinary TxM were investigated. 540 participants in the Hypertension Associated Cardiovascular Disease (HACVD) sub-study of ASCOT gave urine samples at two separate time-points. TxM was measured using liquid chromatography/tandem mass spectrometry, expressed as pg/mg creatinine to correct for urine concentration. All subjects were genotyped on the CVD50K chip, a cardiovascular-specific chip with >50,000 SNPs. Usual quality control measures were applied. Linear regression analysis was performed, assuming an additive genetic model, adjusting for the covariates; age, sex, smoking habit, diabetes, systolic blood pressure, BMI, HDL, LDL, aspirin and anti-hypertensive regimen.
Most interesting of all was the observation that the association of TxM with the 21 PPARGC1β gene SNPs was almost totally driven by the patients not taking aspirin (beta-values range; +184-+392 pg/mg p-values range; 0.00002-0.06), whilst associations between these same 21 SNPs and TxM amongst aspirinated subjects were in large part not statistically significant (beta-values range; −10-+134 pg/mg p-values range; 0.02-0.97).

CC(=O)Oc1ccccc1C(=O)O [aspirin]
Effect on excess production of thromboxane in carriers of PPARGC1β genetic variants: completely, or in large part, blocks the excess production of thromboxane
